# Laboratory results from BindingDB's records for doi:10.1016/j.chembiol.2008.07.015 (Duke University Medical Center, 2008).
# Assays:
# Assay in all cases: BP Incorporation Assay
# Conditions in all cases: 37 °C
# [1] = molecular target: Protein kinase C alpha type/glutamine gamma-glutamyltransferase 2 (Homo sapiens, UniProt P17252+P21980)
# Method: (§1) In order to eliminated fluorescence interference, chemicals were subjected to a secondary screening using colorimetric BP incorporation assay. TGase/TGMS activity was determined by quantifying the incorporation of BP into N,N'-dimethylcasein in a microtiter plate.
# [2] = molecular target: T1, Protein-glutamine gamma-glutamyltransferase 2 (Homo sapiens, UniProt P21980)
# T1 sequence (P21980 whole entry): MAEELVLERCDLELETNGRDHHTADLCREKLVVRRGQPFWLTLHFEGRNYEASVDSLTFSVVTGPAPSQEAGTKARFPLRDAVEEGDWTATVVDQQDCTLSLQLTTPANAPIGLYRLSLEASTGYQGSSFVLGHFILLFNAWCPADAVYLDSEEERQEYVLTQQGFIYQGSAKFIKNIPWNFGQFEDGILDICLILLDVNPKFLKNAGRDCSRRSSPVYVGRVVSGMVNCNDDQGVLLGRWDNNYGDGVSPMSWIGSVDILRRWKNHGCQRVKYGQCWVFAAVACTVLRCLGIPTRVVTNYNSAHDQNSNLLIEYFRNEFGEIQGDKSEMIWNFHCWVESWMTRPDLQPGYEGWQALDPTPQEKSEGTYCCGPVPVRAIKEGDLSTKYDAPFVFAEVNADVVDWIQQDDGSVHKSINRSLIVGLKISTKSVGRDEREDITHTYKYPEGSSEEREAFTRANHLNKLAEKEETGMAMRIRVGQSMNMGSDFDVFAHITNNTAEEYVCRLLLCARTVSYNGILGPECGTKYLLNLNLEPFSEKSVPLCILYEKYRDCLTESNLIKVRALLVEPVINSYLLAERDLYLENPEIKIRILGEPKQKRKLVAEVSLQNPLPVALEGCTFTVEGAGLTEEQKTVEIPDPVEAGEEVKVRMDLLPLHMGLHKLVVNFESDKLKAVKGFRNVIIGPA
# Method: as §1
# [3] = molecular target: Protein-glutamine gamma-glutamyltransferase 2/Receptor protein-tyrosine kinase (Homo sapiens, UniProt P21980+Q504U8)
# Sequence of Protein-glutamine gamma-glutamyltransferase 2/Receptor protein-tyrosine kinase (Q504U8 whole entry, one chain of several): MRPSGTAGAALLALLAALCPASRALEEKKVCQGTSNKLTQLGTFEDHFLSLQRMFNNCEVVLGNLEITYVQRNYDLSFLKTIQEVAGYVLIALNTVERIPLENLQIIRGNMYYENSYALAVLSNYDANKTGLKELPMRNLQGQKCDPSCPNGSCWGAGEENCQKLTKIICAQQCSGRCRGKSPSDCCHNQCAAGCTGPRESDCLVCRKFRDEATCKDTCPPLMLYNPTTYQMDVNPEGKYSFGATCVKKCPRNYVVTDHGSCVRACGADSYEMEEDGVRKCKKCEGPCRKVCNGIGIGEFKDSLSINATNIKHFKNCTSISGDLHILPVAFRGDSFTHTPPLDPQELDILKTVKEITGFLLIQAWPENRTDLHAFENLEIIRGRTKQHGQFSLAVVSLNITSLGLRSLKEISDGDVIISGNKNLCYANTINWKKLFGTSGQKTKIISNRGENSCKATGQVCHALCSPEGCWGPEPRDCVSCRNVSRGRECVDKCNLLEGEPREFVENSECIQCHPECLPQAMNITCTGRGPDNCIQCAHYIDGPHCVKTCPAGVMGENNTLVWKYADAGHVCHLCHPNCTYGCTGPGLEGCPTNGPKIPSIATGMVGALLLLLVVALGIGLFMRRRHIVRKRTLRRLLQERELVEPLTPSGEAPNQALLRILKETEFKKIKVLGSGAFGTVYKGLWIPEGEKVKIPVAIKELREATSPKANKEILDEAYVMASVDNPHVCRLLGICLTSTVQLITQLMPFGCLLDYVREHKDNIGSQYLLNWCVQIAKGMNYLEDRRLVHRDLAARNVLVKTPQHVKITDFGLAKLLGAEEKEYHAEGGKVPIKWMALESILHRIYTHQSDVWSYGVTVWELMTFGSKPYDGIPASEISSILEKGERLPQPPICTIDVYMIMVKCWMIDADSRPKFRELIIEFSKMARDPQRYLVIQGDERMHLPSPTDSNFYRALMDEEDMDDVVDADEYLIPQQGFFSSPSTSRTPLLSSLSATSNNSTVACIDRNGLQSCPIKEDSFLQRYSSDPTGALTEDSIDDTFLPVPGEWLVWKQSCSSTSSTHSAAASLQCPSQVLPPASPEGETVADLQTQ
# Method: as §1
Structure (SMILES),IC50 [1],other results
"CC(=O)c1c(O)c(C)c(O)c(Cc2c(O)c3c(c(C(=O)C=Cc4ccccc4)c2O)OC(C)(C)C=C3)c1O [(E)-1-(6-(3-acetyl-2,4,6-trihydroxy-5-methylbenzyl)-5,7-dihydroxy-2,2-dimethyl-2H-chromen-8-yl)-3-phenylprop-2-en-1-one]",20 µM,
O=C1Nc2ccc(I)cc2/C1=C/c1cc(Br)c(O)c(Br)c1 [G6416 (GW5074)],15 µM,
CC1=CC(=O)c2ccccc2C1=O [Vitamin K3],,IC50 [2]: 2.2 µM
"N#C/C(=C\c1ccc(O)c(O)c1)C(N)=S [alpha-Cyano-(3,4-dihydroxy)thiocinnamide]",,IC50 [3]: 3 µM
